Marks after values point to notes of the source that are not given here.
What was measured:
[1] = test system: C. acetobutylicum; test: Calculated optimum peptide treatment level (polynomial curve fitted to butanol concentration vs treatment level per culture transfer); type: cell-based, Clostridium acetobutylicum
Source text: FIG. 20. Calculation of optimum peptide treatment level for transfer 13 of the first experiment that tested peptide BP110517 (SEQ ID NO:143) (see Table 1 for data). The four butanol concentration data points were graphed against the treatment levels and a polynomial curve was fitted to the graph.
The data from the sequential batch culture experiments treated with peptides BP110517 and BP1106213 were used to calculate optimum peptide treatment levels for enhanced butanol production by C. acetobutylicum. The calculation was made for each culture transfer using the butanol concentration results from control and experimental wells. The four data points for each culture transfer were graphed against the treatment levels, and a polynomial curve was fitted to the graph.
Then, the first derivative of the polynomial fitted to the data for each culture transfer was solved for “x”, which was the maximum point of the fitted polynomial curve (Table 46). The resulting peptide concentration value was assumed to be close to an optimum peptide treatment level that would result in enhanced butanol production.

[2] = test system: C. acetobutylicum; test: Time course study of replicate 250 mL batch cultures (growth, butanol, residual glucose, yield, productivity); type: cell-based, Clostridium acetobutylicum; details: for Increased butanol concentration versus untreated: 50 nM BP1106213; for Butanol concentration / Residual glucose: 50 nM peptide, average ± SD of triplicate, second time course study; for Residual glucose: initial glucose 60 g/L
Method: Subsequently, time-course studies were conducted using the optimum peptide treatment level that was determined by the sequential batch transfer experiments. Untreated and peptide-treated cultures were grown in triplicate 250 mL batches that were inoculated with […] of the ninth sequential transfer from 24-well culture plates. The 1/1000 ratio of inoculum to culture volume was the same as that used throughout the prior sequential batch transfer experiments, and the replicate time course batch cultures corresponded to the 10th sequential batch transfer. Samples were recovered from the triplicate control and experimental batches a regular time intervals up to 96 hours of culture. Optical density of the replicates was measured and culture supernatants were recovered following centrifugation and analyzed later for butanol and residual glucose concentrations. The analyses were used to calculate yield and productivity of the cultures.
Clostridium acetobutylicum strain ATCC 824 was used in all experiments and the growth medium used for sequential batch transfer, time course, and continuous culture experiments contained yeast extract, casamino acids, L-cysteine, L-asparagine, phosphate buffer, trace minerals, and 6% glucose. What are believed to be quorum-sensing peptides that were used in the experiments were chemically synthesized peptides SEQ ID NO: 143 (amino acid sequence: SYPGWSW) and SEQ ID NO: 144 (amino acid sequence: ILILISG). Routine growth of the bacteria as well as the sequential batch and time course experiments were conducted in a Form a Scientific Model 1029 anaerobic gas chamber at 32° C. Continuous cultures were performed at 32° C. using duplicate New Brunswick Scientific BioFlo 3000 apparati with a dilution rate of 0.01 volume per hour, 75 rpm agitation, and nitrogen gas sparging. Optical density of culture samples was measured at 600 nm in a Beckman DU 600 series spectrophotometer and glucose was analyzed using a YSI Model 2700 Select Biochemistry Analyzer with internal glucose calibration. Butanol concentrations were determined by measuring experimental and standard samples using a Varian Saturn 3 Gas Chromatograph/Mass Spectrometer and calculating butanol concentrations using standard curves.
(§1) The study was started by inoculating triplicate 250 mL batches of untreated and peptide-treated medium with 250 μL of the corresponding ninth sequential transfer from 24-well culture plates. Therefore, the replicate time course batch cultures corresponded to the 10th sequential batch transfer. Samples were recovered from the triplicate control and experimental batches at regular time intervals up to 96 hours of culture for measurement of optical density at 600 nm and analysis of butanol and residual glucose concentrations.
as §1, with “Like the previous time course experiment, this” for “The”, “As before, samples” for “Therefore, the replicate time course batch cultures corresponded to the 10th sequential batch transfer. Samples”, “density” for “density at 600 nm”

ILILISG (Derived from Clostridium acetobutylicum SEQ ID NO: 110) [peptide SEQ ID NO: 144]
Calculated Optimum Peptide Level, Average ([1]; average over culture transfers, Expt. 1): 46.2 ± 10.7 nM | Calculated Optimum Peptide Level, Average ([1]; average over culture transfers, Expt. 2): 40.5 ± 3.8 nM | Average optimum peptide treatment level ([1]; average over culture transfers, both experiments for BP110517, single non-inhibitory experiment for BP1106213, fairly large standard deviations): mid to high 40 | Calculated Optimum Peptide Level ([1]; transfer 4, Expt. 1): 46.0 nM | Calculated Optimum Peptide Level ([1]; transfer 4, Expt. 2): Inhib. | Calculated Optimum Peptide Level ([1]; transfer 7, Expt. 1): 32.4 nM | Calculated Optimum Peptide Level ([1]; transfer 7, Expt. 2): Inhib. | Calculated Optimum Peptide Level ([1]; transfer 10, Expt. 1): 49.0 nM | Calculated Optimum Peptide Level ([1]; transfer 10, Expt. 2): Inhib. | Calculated Optimum Peptide Level ([1]; transfer 13, Expt. 1): Inhib.^d | Calculated Optimum Peptide Level ([1]; transfer 13, Expt. 2): 43.2 nM | Calculated Optimum Peptide Level ([1]; transfer 16, Expt. 1): 50.7 nM | Calculated Optimum Peptide Level ([1]; transfer 16, Expt. 2): Inhib. | Calculated Optimum Peptide Level ([1]; transfer 19, Expt. 1): 36.8 nM | Calculated Optimum Peptide Level ([1]; transfer 19, Expt. 2): Inhib. | Calculated Optimum Peptide Level ([1]; transfer 22, Expt. 1): 62.4 nM | Calculated Optimum Peptide Level ([1]; transfer 22, Expt. 2): 37.8 nM | Increased butanol concentration versus untreated ([2]; 72 hours of culture growth): ≤ 15% | Increased butanol concentration versus untreated ([2]; 96 hours of culture growth): ≤ 21% | Butanol concentration ([2]; 0 hours): 0.23 ± 0.00 g/L | Residual glucose ([2]; 0 hours): 59.1 ± 0.9 g/L | Butanol concentration ([2]; 6 hours): 0.24 ± 0.00 g/L | Residual glucose ([2]; 6 hours): 59.8 ± 0.9 g/L | Butanol concentration ([2]; 12 hours): 0.26 ± 0.01^c g/L | Residual glucose ([2]; 12 hours): 60.7 ± 0.8 g/L | Butanol concentration ([2]; 15 hours): 0.26 ± 0.01^c g/L | Residual glucose ([2]; 15 hours): 58.4 ± 0.5 g/L | Butanol concentration ([2]; 18 hours): 0.28 ± 0.01^c g/L | Residual glucose ([2]; 18 hours): 57.4 ± 0.7 g/L | Butanol concentration ([2]; 21 hours): 0.32 ± 0.01 g/L | Residual glucose ([2]; 21 hours): 60.6 ± 0.8 g/L | Butanol concentration ([2]; 24 hours): 0.52 ± 0.01^c g/L | Residual glucose ([2]; 24 hours): 49.4 ± 0.7 g/L | Butanol concentration ([2]; 27 hours): 0.64 ± 0.01 g/L | Residual glucose ([2]; 27 hours): 50.4 ± 1.9 g/L | Butanol concentration ([2]; 30 hours): 0.70 ± 0.04 g/L | Residual glucose ([2]; 30 hours): 49.7 ± 1.9 g/L | Butanol concentration ([2]; 33 hours): 0.82 ± 0.03 g/L | Residual glucose ([2]; 33 hours): 47.6 ± 1.2 g/L | Butanol concentration ([2]; 36 hours): 0.82 ± 0.03 g/L | Residual glucose ([2]; 36 hours): 47.4 ± 1.3 g/L | Butanol concentration ([2]; 48 hours): 1.00 ± 0.03 g/L | Residual glucose ([2]; 48 hours): 44.9 ± 0.5 g/L | Butanol concentration ([2]; 72 hours): 1.17 ± 0.12^c g/L | Residual glucose ([2]; 72 hours): 44.1 ± 3.1 g/L | Butanol concentration ([2]; 96 hours): 0.98 ± 0.07 g/L | Residual glucose ([2]; 96 hours): 46.4 ± 0.9^c g/L

Source: patent US20150031102A1, “METHODS AND COMPOSITIONS FOR ENHANCED PRODUCTION OF BUTANOL BY CLOSTRIDIA” (Butrolix LLC, priority 2012, published 2015)
